From paper PMC9268305, “The Pharmacokinetics in Mice and Cell Uptake of Thymus Immunosuppressive Pentapeptide Using LC-MS/MS Analysis” (Molecules, 2022)
“Also recorded” adds a separate entry of the source. Values belong to the compound of their own block, whether it stands above or below them. Where a SMILES comes first, the peptide text is derived from it. The star is where a group is joined. FITC = O=C1OC2(c3ccc(O)cc3Oc3cc(O)ccc32)c2ccc(NC(=S)*)cc21; Ahx = NCCCCCC(=O)O

Experiments:
[1] = Elimination of TIPP after intravenous injection in mice (data not shown); type: in vivo
[2] = Stability of TIPP in processed murine plasma samples (LC-MS/MS validation); type: in vitro ADME, mouse; details: compared to nominal concentration, mean ± SD, n = 3, in % (unit assumed)
Experimental: The stability of TIPP in plasma samples was investigated under different conditions. To evaluate autosampler stability, long-term stability, and short-term stability, up to three replicates of LQC and HQC plasma samples were evaluated when the samples were stored at room temperature for 4 h, at 4 °C for 24 h, and at −80 °C for 4 weeks, respectively. Freeze–thaw stability was also assessed in three cycles from −80 to 25 °C. Concentrations were determined using a TIPP calibrator of the respective validation day. Obtained results were compared to nominal concentrations to determine the stability.

RBL-2H3 cells [3] = experiment: Uptake of TIPP in RBL-2H3 cells by LC-MS/MS (lysates, supernatants, final rinse)
Experimental: (§1) RBL-2H3 cells were obtained from the Cell Resource Center of Shanghai Institutes for Biological Sciences (Shanghai, China) and cultured in complete MEM containing 15% heat-inactivated FBS in a 37 °C incubator (5% CO2 and 95% air). […] To prepare final cell rinse samples, the cells were removed, the supernatant was rinsed with 1 mL of PBS five times, and 90 μL of the final cell rinse was collected and mixed with 10 μL of S4 solution (3 μg/mL) for chromatographic analysis directly. For the preparation of cell lysate samples, the cells (about 10^6 cells) were lysed with 130 μL of RIPA buffer for 30 min on ice, and 100 μL of the cell lysate was collected for sample pre-processing following Section 4.5.1.
(§2) RBL-2H3 cells were seeded in a 35 mm diameter dish at 8 × 10^5 cells and treated with 200 μg/mL TIPP for different durations (5 min, 10 min, 20 min, 30 min, 40 min, 1 h, 3 h, 6 h, 12 h, and 24 h). Then, the cells were subjected to the pre-processing procedures to prepare cell lysates, cell culture supernatants and the final cell rinse samples (Section 4.5.2). In addition, to study TIPP intracellular degradation, the cells were incubated with TIPP for 40 min, which was followed by incubation with TIPP-free medium for 10, 20, 30, 40, and 60 min, respectively. The cell lysates were then harvested at the above time points and pre-processed as presented in Section 4.5.2.

[4] = PK of TIPP via subcutaneous injection in mice; details: female, BALB/c, mouse, plasma, sc, 50 mg/kg; for MRT: mice, 50 mg/kg subcutaneous, mean ± SD, n = 8
Experimental: (§3) Whole blood was collected from inner canthus into a tube containing ethylenediaminetetraacetic acid (EDTA) and centrifuged at 5000 rcf for 3 min. Subsequently, 10 μL of plasma samples were diluted with 90 μL TDW. The sample processing process is then executed, and the diluted samples were mixed with 10 μL of S4 solution (3 μg/mL) and 300 μL of 2% FA-ACN in a tube containing 20 μL of DTT solution (25 mg/mL). After centrifugation at 15,000 rcf for 10 min, 300 μL supernatant was transferred to a new tube containing 500 μL of DCM. The mixture was vortexed and centrifuged at 15,000 rcf for 10 min, and the aqueous layer was loaded into the LC-MS/MS system.
(§4) After 4 h fasting (ad libitum water intake), mice were subcutaneously injected with 50 mg/kg TIPP. At 0.5, 1, 2, 5, 10, 15, 20, and 40 min post administration (eight mice at each time points), blood samples were taken from an inner canthus into tubes containing Na2·EDTA and centrifuged at 5000 rcf for 10 min to obtain plasma. All samples were processed as described in Section 4.5.1 immediately.
(§5) PK parameters were calculated as mean ± standard deviation (SD). The Cmax and the time to reach Tmax were calculated based on the highest concentration and the corresponding time point, and t1/2 was calculated from C0 to C40. The area under the curve during the 40 min window (AUC0→40) and the extrapolated value (AUC0→∞) were calculated using the trapezoidal rule, and the elimination rate and concentration at 40 min were extrapolated from 40 min to infinity. The CL/F and Vd/F were calculated using the first-order one-compartment model.
(§6) Analyst® 1.5 software (AB SCIEX) was used for HPLC-MS/MS data processing. A non-compartmental model was employed to fit the PK of TIPP in mice plasma using DAS 2.0 software. […] Results were compared using t test or one-way analysis of variance, which was followed by Dunnett’s multiple comparisons test, with p < 0.05 considered significant.

RBL-2H3 cells [5] = tested on: RBL-2H3 cells
Experimental: as §1, §2

[6] = Sample-preparation stability/recovery of TIPP in water and murine plasma, with stabilizers; type: in vitro ADME, mouse
Experimental: TIPP stock solutions were separately diluted in TDW or murine plasma at a concentration of 1 μg/mL. Samples (10 μL) were subjected to protein precipitation either immediately or after 10 min incubation at room temperature (around 25 °C). A series of reagents were used for protein precipitation, including MeOH (300 μL) and 2% FA-ACN of different volumes (300, 140, 100, and 70 μL). After brief vortex, the samples were centrifuged at 15,000 rcf at 4 °C for 10 min, and the supernatants were collected for chromatographic analysis. In order to increase the signal intensity of highly water-soluble TIPP in organic solvents, a group of liquid–liquid extraction was carried out to separate the aqueous phase from the organic phase. After treating with 300 μL of 2% FA-ACN, the resulting supernatants (300 μL) were mixed with 500 μL of DCM for backwashing. […] After sample preparation, the processed samples were stored at −80 °C until analysis. Before sampling, the prepared sample was thawed, vortexed, and placed in the autosampler.
To choose the optimal stabilizer, the performance of DTT (30 mg/mL), L-AA (10 mg/mL), and PMSF (50 μg/mL) was evaluated. Plasma (90 μL) was mixed with each stabilizer (20 μL), and TIPP (10 μL, 5 μg/mL). The samples were subjected to protein precipitation either immediately or after 10 min incubation at room temperature. For protein precipitation, the samples added with 10 μL of S4 (3 μg/mL) were mixed with 300 μL of 2% FA-ACN and processed as discussed in Section 4.3.1. The aqueous layer was collected for chromatographic analysis. The recovery of TIPP with each stabilizer was determined. Moreover, the stabilizing effect of DTT was further evaluated with different concentrations (2.5, 5, 10, 20, 25, and 40 mg/mL), following the above protocol.

[7] = mouse, in vivo, sc, 50 mg/kg
Experimental: as §3, §4, §5, §6

[8] = -SH group substituted with the -OH group; cited from earlier work
Source text: The pharmacokinetic properties in animals and its action mechanism also need to be studied using reliable, accurate, and sensitive methods in order to develop TIPP into a new drug. Short peptides can be analyzed using fluorescence labeling, immunoassay, and liquid chromatography-tandem mass spectrometry (LC-MS/MS). Although the visualization and quantification of fluorescently labeled peptides are widely used, there are still some drawbacks. One such flaw is that fluorescent labeling might change the structure of small molecules, resulting in the alteration of physical and chemi ...

RBL-2H3 cells [9] = experiment: Confocal visualization of cellular localization of FITC-TIPP; type: cell-based, rat; details: confocal microscope
Experimental: RBL-2H3 cells (4 × 10^4) were seeded in a 35 mm confocal dish and treated with 367 μg/mL FITC-TIPP for 0, 5, 10, 20, 30, 40, and 60 min, respectively. Then, the cells were fixed with 4% paraformaldehyde solution for 10 min and permeabilized with 0.1% Triton-100 for 5 min, which was followed by nuclear staining in a dark place with Hoechst 33342 for 5 min. Finally, the cells were washed, stained with DiI dye solution for 10 min, rinsed with PBS three times, and analyzed with a confocal microscope.

Elimination after intravenous injection [1]: rapid elimination | Stability in murine plasma, 4 weeks at −80 °C, HQC ([2]; HQC 4000 ng/mL, 4 weeks at −80 °C): 90.70 ± 0.12 | Stability in murine plasma, 4 h at room temperature, HQC ([2]; HQC 4000 ng/mL, 4 h at room temperature): 98.02 ± 0.04 | Stability in murine plasma, 24 h at 4 °C, HQC ([2]; HQC 4000 ng/mL, autosampler 24 h at 4 °C): 99.35 ± 0.84 | Stability in murine plasma, three freeze-thaw cycles, HQC ([2]; HQC 4000 ng/mL, three freeze-thaw cycles at −80–25 °C): 106.00 ± 0.16 | Stability in murine plasma, 4 weeks at −80 °C, LQC ([2]; LQC 50 ng/mL, 4 weeks at −80 °C): 90.70 ± 1.61 | Stability in murine plasma, 24 h at 4 °C, LQC ([2]; LQC 50 ng/mL, autosampler 24 h at 4 °C): 103.64 ± 2.00 | Stability in murine plasma, three freeze-thaw cycles, LQC ([2]; LQC 50 ng/mL, three freeze-thaw cycles at −80–25 °C): 94.23 ± 0.02 | Intracellular concentration of TIPP (cell lysate) at 20 min (RBL-2H3 cells [3]; 200 μg/mL TIPP, 20 min, cells rinsed five times with PBS, RIPA lysate, LC-MS/MS, n = 3): 24.57 ± 4.53 ng/mL | Concentration of TIPP in cell culture supernatant at 12 h (RBL-2H3 cells [3]; 200 μg/mL TIPP, MEM with 15% FBS, 37 °C, 12 h, LC-MS/MS, n = 3): below the detection limit | Concentration of TIPP in PBS rinse samples (RBL-2H3 cells [3]; 200 μg/mL TIPP, all PBS rinse samples, detection limit, LC-MS/MS): < 0.1 ng/mL | Residual TIPP in the final cell rinse PBS (in words) (RBL-2H3 cells [3]; 200 μg/mL TIPP, fifth PBS rinse, LC-MS/MS): No residual TIPP was detected | Intracellular concentration of TIPP (cell lysate), plateau (RBL-2H3 cells [3]; 200 μg/mL TIPP, from 30 min onwards, RIPA lysate, LC-MS/MS, n = 3): 38.62 ± 2.47 ng/mL | AUC(0-inf) [4]: 136 ng·h/mL | AUC(0-t) [4]: 133 ng·h/mL | Cmax [4]: 623 ± 67.1 ng/mL | Tmax [4]: 10 min | Vd/F [4]: 54.4 ± 20.9 L/kg | half-life [4]: 5.99 ± 1.82 min | level at 40 min [4]: ~20 ng/mL | MRT ([4]; MRT(0–t)): 11.3 min | MRT ([4]; MRT(0–∞)): 12.5 min | Intracellular t1/2 of TIPP (RBL-2H3 cells [5]): 5.596 min | Stability of TIPP in aqueous solution ([6]; 1 μg/mL in TDW, 10 min at room temperature (around 25 °C), protein precipitation with only organic reagents, LC-MS/MS intensity): remained stable | Stability of TIPP in plasma without stabilizer ([6]; 1 μg/mL in murine plasma, 10 min at room temperature (around 25 °C), protein precipitation with only organic reagents, LC-MS/MS intensity): intensity decreased significantly | Average recovery of TIPP in plasma with DTT as stabilizer ([6]; murine plasma, 20 mg/mL DTT, immediately or after 10 min at room temperature, LC-MS/MS, n = 3): higher than 95% | CL/F (apparent clearance rate) [7]: 380 ± 87 L/h/kg
Compound: C[C@H](N)C(=O)N[C@@H](CCC(=O)O)C(=O)N[C@@H](Cc1c[nH]c2ccccc12)C(=O)N[C@@H](CS)C(=O)N1CCC[C@H]1C(=O)O (H-AEWCP-OH)
Intracellular TIPP about 30 min after substituting TIPP-free medium (in words) (RBL-2H3 cells [3]; 40 min with 200 μg/mL TIPP, then TIPP-free medium for 30 min, cell lysates): almost eliminated; also recorded: decreased to near LLOQ

Compound: AEWSP [S4, analog of TIPP (AEWSP), used as the internal standard of the LC-MS/MS method]
Stability compared with TIPP [8]: significantly improved

Compound: C[C@H](NC(=O)CCCCCNC(=S)Nc1ccc2c(c1)C(=O)OC21c2ccc(O)cc2Oc2cc(O)ccc21)C(=O)N[C@@H](CCC(=O)O)C(=O)N[C@@H](Cc1c[nH]c2ccccc12)C(=O)N[C@@H](CS)C(=O)N1CCC[C@H]1C(=O)O [FITC-TIPP] ({FITC-Ahx}-AEWCP-OH)
Co-localization of FITC-TIPP with RBL-2H3 cells (RBL-2H3 cells [9]; 367 μg/mL FITC-TIPP (same molar concentration as 200 μg/mL TIPP), fluorescence): co-localized with RBL-2H3 cells at 10 min | Fluorescent signal of FITC-TIPP in cells over time (RBL-2H3 cells [9]; 367 μg/mL FITC-TIPP, after 30 min, Hoechst 33342 and DiI staining): remained steady after 30 min with significant intranuclear enrichment
